{
  "source": "ChEMBL document CHEMBL4376879",
  "about": "“Fragment-to-Lead Medicinal Chemistry Publications in 2018” (J Med Chem, 2020)",
  "key": {"[1]": {"biological_target": "Beta-2 adrenergic receptor (Homo sapiens, UniProt P07550)", "sequence (P07550 whole entry)": "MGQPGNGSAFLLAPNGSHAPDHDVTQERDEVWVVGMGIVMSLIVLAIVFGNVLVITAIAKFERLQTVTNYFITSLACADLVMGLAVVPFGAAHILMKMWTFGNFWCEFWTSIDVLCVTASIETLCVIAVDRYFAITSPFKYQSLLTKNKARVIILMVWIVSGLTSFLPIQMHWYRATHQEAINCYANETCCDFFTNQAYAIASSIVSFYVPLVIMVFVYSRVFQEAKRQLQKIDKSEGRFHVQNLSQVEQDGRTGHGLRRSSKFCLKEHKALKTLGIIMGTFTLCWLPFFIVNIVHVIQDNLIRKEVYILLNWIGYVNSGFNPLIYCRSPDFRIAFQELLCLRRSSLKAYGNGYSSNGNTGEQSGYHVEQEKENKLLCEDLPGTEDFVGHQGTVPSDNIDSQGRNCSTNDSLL", "test": "Inhibition of beta2 adrenoreceptor (unknown origin)"}, "[2]": {"biological_target": "T1, Glycylpeptide N-tetradecanoyltransferase 1 (Homo sapiens, UniProt P30419)", "T1 sequence (P30419 whole entry)": "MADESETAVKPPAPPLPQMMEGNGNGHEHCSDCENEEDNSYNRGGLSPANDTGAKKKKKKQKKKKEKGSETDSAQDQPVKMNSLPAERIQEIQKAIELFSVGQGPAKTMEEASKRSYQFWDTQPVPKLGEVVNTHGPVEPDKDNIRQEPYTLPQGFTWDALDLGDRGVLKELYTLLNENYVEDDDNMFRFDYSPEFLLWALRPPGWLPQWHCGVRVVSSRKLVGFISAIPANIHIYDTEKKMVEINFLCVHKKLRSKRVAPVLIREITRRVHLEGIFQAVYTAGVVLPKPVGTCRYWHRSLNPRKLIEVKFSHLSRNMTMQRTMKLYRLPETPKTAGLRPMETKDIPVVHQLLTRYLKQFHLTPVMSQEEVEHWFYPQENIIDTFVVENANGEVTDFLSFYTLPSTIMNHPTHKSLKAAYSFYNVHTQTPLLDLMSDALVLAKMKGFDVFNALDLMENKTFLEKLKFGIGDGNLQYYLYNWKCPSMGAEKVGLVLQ", "test": "Inhibition of human N-myristoyltransferase assessed as reduction in CoASH production by fluorogenic detection based assay"}, "[3]": {"biological_target": "cAMP and cAMP-inhibited cGMP 3',5'-cyclic phosphodiesterase 10A (Homo sapiens, UniProt Q9Y233)", "sequence (Q9Y233 whole entry)": "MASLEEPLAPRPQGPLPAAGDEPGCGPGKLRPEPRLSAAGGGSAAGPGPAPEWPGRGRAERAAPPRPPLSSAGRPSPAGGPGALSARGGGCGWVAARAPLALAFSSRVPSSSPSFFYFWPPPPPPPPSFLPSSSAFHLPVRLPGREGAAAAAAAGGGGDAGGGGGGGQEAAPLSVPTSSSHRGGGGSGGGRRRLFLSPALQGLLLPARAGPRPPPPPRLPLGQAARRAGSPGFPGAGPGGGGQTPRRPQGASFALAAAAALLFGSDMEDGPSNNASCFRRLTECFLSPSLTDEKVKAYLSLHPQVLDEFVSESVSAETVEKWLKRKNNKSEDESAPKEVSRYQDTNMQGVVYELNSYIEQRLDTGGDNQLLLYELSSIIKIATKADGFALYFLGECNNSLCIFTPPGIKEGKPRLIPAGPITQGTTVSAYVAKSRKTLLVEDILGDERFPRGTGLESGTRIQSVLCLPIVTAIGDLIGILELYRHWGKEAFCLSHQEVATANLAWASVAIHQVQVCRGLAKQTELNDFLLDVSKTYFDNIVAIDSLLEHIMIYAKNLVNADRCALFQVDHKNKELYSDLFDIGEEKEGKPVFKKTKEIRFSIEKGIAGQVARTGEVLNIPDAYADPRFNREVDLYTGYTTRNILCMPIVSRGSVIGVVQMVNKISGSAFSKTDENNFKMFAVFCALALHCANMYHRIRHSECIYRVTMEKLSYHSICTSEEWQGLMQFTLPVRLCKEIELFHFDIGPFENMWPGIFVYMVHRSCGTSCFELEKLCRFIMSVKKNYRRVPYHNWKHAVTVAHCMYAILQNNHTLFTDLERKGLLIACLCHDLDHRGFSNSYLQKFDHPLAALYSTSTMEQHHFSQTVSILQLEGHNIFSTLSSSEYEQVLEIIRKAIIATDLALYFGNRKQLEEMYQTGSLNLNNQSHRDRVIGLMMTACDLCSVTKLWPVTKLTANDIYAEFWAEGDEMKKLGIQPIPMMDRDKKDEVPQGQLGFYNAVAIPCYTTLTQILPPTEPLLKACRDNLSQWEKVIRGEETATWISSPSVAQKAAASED", "test": "Inhibition of human PDE10A2 using cAMP substrate by HTRF assay"}, "GTPase HRas": {"biological_target": "GTPase HRas (Homo sapiens, UniProt P01112, G12V)", "sequence (P01112 whole entry G12V, the tested form may be a part)": "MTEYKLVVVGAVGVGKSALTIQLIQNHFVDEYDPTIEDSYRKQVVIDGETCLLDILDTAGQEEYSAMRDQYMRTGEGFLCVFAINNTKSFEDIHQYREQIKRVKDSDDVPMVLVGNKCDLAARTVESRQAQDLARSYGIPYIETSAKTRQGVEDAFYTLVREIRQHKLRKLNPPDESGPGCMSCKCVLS", "test": "Inhibition GST-tagged recombinant HRAS G12V mutant (1 to 166 amino acids) (unknown origin) expressed in Escherichia coli C41(DE3) by SPR assay"}, "CREB-binding protein": {"biological_target": "CREB-binding protein (Homo sapiens, UniProt Q92793)", "sequence (Q92793 whole entry)": "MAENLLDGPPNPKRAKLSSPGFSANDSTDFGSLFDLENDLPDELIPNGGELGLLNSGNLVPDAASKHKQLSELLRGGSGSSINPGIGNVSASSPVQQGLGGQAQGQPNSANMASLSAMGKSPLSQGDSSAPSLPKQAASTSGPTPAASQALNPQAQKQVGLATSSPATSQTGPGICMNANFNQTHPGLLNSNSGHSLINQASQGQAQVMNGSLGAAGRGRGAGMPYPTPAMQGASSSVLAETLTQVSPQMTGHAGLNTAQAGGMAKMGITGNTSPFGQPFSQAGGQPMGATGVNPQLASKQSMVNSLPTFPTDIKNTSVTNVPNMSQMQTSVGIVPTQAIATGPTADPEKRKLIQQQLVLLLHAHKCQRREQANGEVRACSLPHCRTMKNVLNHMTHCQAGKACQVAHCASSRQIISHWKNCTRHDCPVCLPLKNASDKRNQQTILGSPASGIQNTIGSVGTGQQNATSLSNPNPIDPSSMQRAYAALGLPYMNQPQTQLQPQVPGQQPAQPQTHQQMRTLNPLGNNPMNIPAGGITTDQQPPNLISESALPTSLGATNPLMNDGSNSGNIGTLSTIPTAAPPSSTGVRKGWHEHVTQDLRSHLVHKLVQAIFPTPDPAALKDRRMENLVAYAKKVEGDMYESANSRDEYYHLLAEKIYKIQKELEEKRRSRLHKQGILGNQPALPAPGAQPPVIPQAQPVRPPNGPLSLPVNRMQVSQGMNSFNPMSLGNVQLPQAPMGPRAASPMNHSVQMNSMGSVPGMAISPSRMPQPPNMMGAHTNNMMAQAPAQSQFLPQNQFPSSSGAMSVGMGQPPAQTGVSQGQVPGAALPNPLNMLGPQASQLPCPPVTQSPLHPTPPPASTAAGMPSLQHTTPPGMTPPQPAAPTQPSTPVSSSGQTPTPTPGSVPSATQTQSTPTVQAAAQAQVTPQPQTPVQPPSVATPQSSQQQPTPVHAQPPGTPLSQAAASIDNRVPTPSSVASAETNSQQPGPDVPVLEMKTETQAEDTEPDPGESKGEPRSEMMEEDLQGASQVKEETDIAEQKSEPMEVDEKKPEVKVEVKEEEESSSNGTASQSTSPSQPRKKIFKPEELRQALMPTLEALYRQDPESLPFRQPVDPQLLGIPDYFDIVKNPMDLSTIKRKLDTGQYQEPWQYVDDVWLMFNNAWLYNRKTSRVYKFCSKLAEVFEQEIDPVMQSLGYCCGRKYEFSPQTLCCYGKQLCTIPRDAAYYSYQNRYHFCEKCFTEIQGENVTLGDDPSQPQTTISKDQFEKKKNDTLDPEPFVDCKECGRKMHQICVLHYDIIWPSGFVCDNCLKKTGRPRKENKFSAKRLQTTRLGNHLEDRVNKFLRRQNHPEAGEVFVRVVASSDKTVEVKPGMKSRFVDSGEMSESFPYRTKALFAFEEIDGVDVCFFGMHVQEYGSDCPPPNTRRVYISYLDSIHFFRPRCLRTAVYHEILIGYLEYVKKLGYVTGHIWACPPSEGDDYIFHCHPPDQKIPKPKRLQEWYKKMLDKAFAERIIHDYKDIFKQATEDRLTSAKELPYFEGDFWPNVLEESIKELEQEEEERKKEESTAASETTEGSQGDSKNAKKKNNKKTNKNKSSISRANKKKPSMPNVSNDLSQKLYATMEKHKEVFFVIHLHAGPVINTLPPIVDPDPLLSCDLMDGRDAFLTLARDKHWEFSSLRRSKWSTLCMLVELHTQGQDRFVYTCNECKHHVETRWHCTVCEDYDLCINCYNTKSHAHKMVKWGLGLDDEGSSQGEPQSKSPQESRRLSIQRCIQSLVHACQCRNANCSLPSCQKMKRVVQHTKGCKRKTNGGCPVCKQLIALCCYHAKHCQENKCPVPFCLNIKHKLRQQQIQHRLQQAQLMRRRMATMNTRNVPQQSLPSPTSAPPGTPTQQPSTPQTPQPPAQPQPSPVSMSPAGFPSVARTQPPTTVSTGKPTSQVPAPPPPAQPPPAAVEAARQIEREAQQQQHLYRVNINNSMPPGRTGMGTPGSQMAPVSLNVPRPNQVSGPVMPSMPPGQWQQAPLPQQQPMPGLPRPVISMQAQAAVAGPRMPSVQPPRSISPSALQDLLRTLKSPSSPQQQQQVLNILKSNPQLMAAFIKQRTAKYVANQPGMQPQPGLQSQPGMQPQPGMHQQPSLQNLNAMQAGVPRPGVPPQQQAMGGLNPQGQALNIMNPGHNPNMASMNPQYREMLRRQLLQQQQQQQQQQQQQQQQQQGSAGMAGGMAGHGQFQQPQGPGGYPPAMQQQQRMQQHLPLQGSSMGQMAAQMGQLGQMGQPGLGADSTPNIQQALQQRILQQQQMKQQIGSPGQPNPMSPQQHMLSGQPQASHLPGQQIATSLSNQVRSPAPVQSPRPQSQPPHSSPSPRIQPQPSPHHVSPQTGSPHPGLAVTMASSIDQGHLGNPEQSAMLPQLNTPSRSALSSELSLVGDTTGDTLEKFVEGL", "test": "Binding affinity to Poly-Histidine-tagged CBP (unknown origin) expressed in Escherichia coli BL21(DE3) by competition binding assay"}},
  "data": [
    {"molecule": "NCc1ccc(-c2ncccn2)cc1", "values": [
      {"measurement": "IC50", "setting": "[1]", "value": 10, "unit": "µM"}
    ]},
    {"molecule": "Cc1nn(C)c(C)c1CCOc1c(-c2ccc3c(c2)c(CN(C)C)nn3C)ccc(F)c1F", "values": [
      {"measurement": "IC50", "setting": "[2]", "value": "< 0.001", "unit": "µM"}
    ]},
    {"molecule": "Cc1cc2nccc(-c3ccc(Cl)cc3)n2n1", "values": [
      {"measurement": "IC50", "setting": "[3]", "value": "< 10", "unit": "µM"}
    ]},
    {"molecule": "COc1nc(-c2cccc3c2OCCO3)ccc1Nc1ccc(CN(C)C)cc1", "values": [
      {"measurement": "Kd", "setting": "GTPase HRas", "value": 0.051, "unit": "µM"}
    ]},
    {"molecule": "CCOc1ccc(C(C)=O)cc1N", "values": [
      {"measurement": "Kd", "setting": "CREB-binding protein", "value": 53, "unit": "µM"}
    ]},
    {"molecule": "Clc1ccc(CNCc2ccc(-c3ncccn3)cc2)cc1Cl", "values": [
      {"measurement": "IC50", "setting": "[1]", "value": "< 0.001", "unit": "µM"}
    ]},
    {"molecule": "O=C(Nc1ccc2ccccc2n1)c1ccco1", "values": [
      {"measurement": "Kd", "setting": "GTPase HRas", "value": "> 370", "unit": "µM"}
    ]}
  ]
}
